Values after ≈ are worked out from the molar mass of the structure shown. A value given as a limit tells only on which side of the number the result lay.

Consider eleven molecules from DBAASP.

Among the test systems are Candida albicans; Escherichia coli UB1005; Bacillus subtilis; Pseudomonas aeruginosa; Staphylococcus aureus; Escherichia coli; Acinetobacter baumannii; Escherichia coli W160-37; Escherichia coli B; Bacillus subtilis 168.
Holding throughout (experiment): ≥ marks a high value that may be exact or a test limit, other limits are often not marked, values filed in µg/mL are converted to µM
Assay [1] concerns Staphylococcus aureus ATCC 25923.
For assay [2], the system named is Pseudomonas aeruginosa H103.
The subject of assay [3] is Enterococcus faecalis ATCC 29212.
The subject of assay [4] is Salmonella enterica serovar Typhimurium.
Assay [5] deals with Staphylococcus epidermidis.
For assay [6], the system named is Escherichia coli ATCC 25922.
Assay [7] concerns Pseudomonas aeruginosa PAO1.
Assay [8] deals with Staphylococcus epidermidis ATCC 12228.
For assay [9], the system named is Staphylococcus aureus ATCC 29213.
The test system of assay [10] is Salmonella enterica subsp. enterica serovar Pullorum C79-13.
Assay [11] relates to Salmonella enterica subsp. enterica serovar Typhimurium C77-31.
Assay [12] has as its system Candida albicans F7-39/IDE99.
Assay [13] relates to Escherichia coli NCTC 10418.
The test system of assay [14] is Candida albicans NCYC 1467.
For assay [15], the system named is Pseudomonas aeruginosa ATCC 27853.
For assay [16], the system named is Staphylococcus aureus NCTC 12493.
Assay [17] has as its system Staphylococcus aureus NCTC 10788.

For `CC[C@H](C)[C@H](NC(=O)[C@H](CCCN=C(N)N)NC(=O)[C@H](CCCN=C(N)N)NC(=O)[C@H](CC(C)C)NC(=O)[C@@H](N)CCCN=C(N)N)C(=O)N[C@H](C(=O)N[C@H](C(=O)N[C@H](C(=O)N[C@@H](CCCN=C(N)N)C(=O)N[C@H](C(=O)N[C@@H](Cc1ccccc1)C(=O)N[C@@H](CCCN=C(N)N)C(=O)O)C(C)C)[C@@H](C)CC)C(C)C)C(C)C` [RLRRIVVIRVFR], the MIC in [1] came out at 1 µM (≈ 1.58 µg/mL); against Candida albicans, 16 µM (≈ 25.3 µg/mL); in [2] it was 8 µM (≈ 12.7 µg/mL); in assay [3], 2 µM (≈ 3.17 µg/mL); in assay [4] it was 4 µM (≈ 6.33 µg/mL); in the assay with Escherichia coli UB1005, 4 µM (≈ 6.33 µg/mL). Besides, the MIC in assay [5] is 0.5 µM (≈ 0.792 µg/mL).

`CC[C@H](C)[C@H](NC(=O)[C@H](CCCN=C(N)N)NC(=O)[C@@H](NC(=O)[C@H](Cc1c[nH]c2ccccc12)NC(=O)[C@H](Cc1c[nH]c2ccccc12)NC(=O)[C@@H](N)CCCN=C(N)N)[C@@H](C)CC)C(=O)N[C@@H](CCCN=C(N)N)C(=O)N[C@@H](Cc1c[nH]c2ccccc12)C(=O)N[C@@H](Cc1cnc[nH]1)C(=O)O` [RWWIRIRWH]: the MIC in [1] was determined as 1.3 µM (≈ 1.83 µg/mL); in the assay with Candida albicans, 10.7 µM (≈ 15.1 µg/mL); in [2], 10.7 µM (≈ 15.1 µg/mL); in assay [3], 2.7 µM (≈ 3.8 µg/mL); in assay [4] it was 2.7 µM (≈ 3.8 µg/mL); against Escherichia coli UB1005, 1.3 µM (≈ 1.83 µg/mL). In assay [5], this molecule registered a minimum inhibitory concentration (MIC) of 1.3 µM (≈ 1.83 µg/mL).

Regarding `CC[C@H](C)[C@H](NC(=O)[C@H](CCCN=C(N)N)NC(=O)[C@H](Cc1c[nH]c2ccccc12)NC(=O)[C@H](CCC(N)=O)NC(=O)[C@@H](N)CCCCN)C(=O)N[C@@H](CCCN=C(N)N)C(=O)N[C@H](C(=O)N[C@@H](C)C(=O)N[C@H](C(=O)N[C@H](C(=O)N[C@@H](CCCN=C(N)N)C(=O)N[C@@H](C)C(=O)O)[C@@H](C)CC)C(C)C)C(C)C` [KQWRIRVAVIRA], the minimum inhibitory concentration (MIC) in [1] was 21.4 µM (≈ 32 µg/mL); in assay [4], no less than 42.8 µM; in assay [6], 21.4 µM (≈ 32 µg/mL); in assay [7], 85.6 µM (≈ 128 µg/mL).

Take `CC[C@H](C)[C@H](NC(=O)[C@@H](NC(=O)[C@H](Cc1c[nH]c2ccccc12)NC(=O)[C@@H](NC(=O)[C@@H](N)CCCCN)[C@@H](C)CC)C(C)C)C(=O)N[C@@H](CCCN=C(N)N)C(=O)N[C@@H](Cc1c[nH]c2ccccc12)C(=O)N[C@@H](CCCN=C(N)N)C(N)=O` [KIWVIRWR]: the MIC is 13.8 µM (≈ 16 µg/mL) in assay [1]; 13.8 µM (≈ 16 µg/mL) against Candida albicans; 13.8 µM (≈ 16 µg/mL) in assay [2]; 13.8 µM (≈ 16 µg/mL) in assay [3]; 26.8 µM (≈ 31 µg/mL) in assay [4]; 6.92 µM (≈ 7.99 µg/mL) in the assay on Escherichia coli UB1005. The molecule also had an MIC in assay [5] of 3.46 µM (≈ 4 µg/mL).

As for `NCCCC[C@H](NC(=O)CNC(=O)[C@H](CC(N)=O)NC(=O)[C@H](CCC(=O)O)NC(=O)[C@H](Cc1c[nH]c2ccccc12)NC(=O)[C@H](CCCCN)NC(=O)[C@H](Cc1c[nH]c2ccccc12)NC(=O)[C@H](CCCCN)NC(=O)[C@@H](N)Cc1c[nH]c2ccccc12)C(=O)N[C@@H](Cc1c[nH]c2ccccc12)C(=O)N[C@@H](CCCCN)C(=O)N[C@@H](Cc1c[nH]c2ccccc12)C(=O)N[C@@H](CCC(N)=O)C(=O)N[C@@H](Cc1c[nH]c2ccccc12)C(=O)O` [WKWKWENGKWKWQW], the minimum inhibitory concentration (MIC) was greater than 128 µM in [8]; greater than 128 µM in [3]; greater than 128 µM in [9]; 16 µM (≈ 33.2 µg/mL) in assay [10]; 32 µM (≈ 66.4 µg/mL) in assay [6]; no less than 64 µM in assay [11].

With `CC[C@H](C)[C@H](NC(=O)[C@@H](NC(=O)[C@@H](NC(=O)[C@H](CCCN=C(N)N)NC(=O)[C@H](CCCN=C(N)N)NC(=O)[C@H](CCC(N)=O)NC(=O)[C@@H](N)CCCN=C(N)N)C(C)C)C(C)C)C(=O)N[C@@H](Cc1c[nH]c2ccccc12)C(=O)N[C@@H](Cc1c[nH]c2ccccc12)C(=O)O` [RQRRVVIWW], the MIC is 2.7 µM (≈ 3.51 µg/mL) in assay [1]; 21.4 µM (≈ 27.8 µg/mL) with Candida albicans; 10.7 µM (≈ 13.9 µg/mL) in assay [2]; 5.3 µM (≈ 6.88 µg/mL) in assay [3]; 5.3 µM (≈ 6.88 µg/mL) in assay [4]; 1.3 µM (≈ 1.69 µg/mL) in the assay on Escherichia coli UB1005. The same molecule had a minimal inhibitory concentration (MIC) in [5] of 1.3 µM (≈ 1.69 µg/mL).

With `CC[C@H](C)[C@H](NC(=O)[C@H](Cc1cnc[nH]1)NC(=O)[C@H](CCCCN)NC(=O)[C@H](CC(C)C)NC(=O)[C@H](CC(C)C)NC(=O)[C@H](CO)NC(=O)[C@H](Cc1c[nH]c2ccccc12)NC(=O)[C@H](Cc1c[nH]c2ccccc12)NC(=O)[C@H](CCCCN)NC(=O)CN)C(=O)N[C@@H](CC(C)C)C(=O)N[C@@H](CCCCN)C(N)=O` [GKWWSLLKHILK], the MIC with Bacillus subtilis came to 0.6 µM (≈ 0.905 µg/mL); against Pseudomonas aeruginosa, 50 µM (≈ 75.4 µg/mL); against Staphylococcus aureus, 4.7 µM (≈ 7.09 µg/mL); against Escherichia coli, 1.6 µM (≈ 2.41 µg/mL); in assay [12], 5.3 µM (≈ 7.99 µg/mL).

In the case of `CC(C)[C@H](NC(=O)[C@H](CCCN=C(N)N)NC(=O)[C@H](Cc1c[nH]c2ccccc12)NC(=O)[C@H](CCCN=C(N)N)NC(=O)[C@@H](NC(=O)[C@H](CCCCN)NC(=O)[C@H](Cc1c[nH]c2ccccc12)NC(=O)[C@H](CCCN=C(N)N)NC(=O)[C@@H](NC(=O)[C@H](CCCN=C(N)N)NC(=O)[C@@H](N)Cc1c[nH]c2ccccc12)C(C)C)[C@@H](C)O)C(=O)N[C@@H](CCCCN)C(N)=O` [WRVRWKTRWRVK], the minimal inhibitory concentration (MIC) in assay [1] came to 4 µM (≈ 7.02 µg/mL); in the assay with Pseudomonas aeruginosa, 32 µM (≈ 56.2 µg/mL); in assay [8], 4 µM (≈ 7.02 µg/mL); against Staphylococcus aureus, 4 µM (≈ 7.02 µg/mL); in the assay on Escherichia coli UB1005, 2 µM (≈ 3.51 µg/mL); in assay [9], 2 µM (≈ 3.51 µg/mL). Also, the MIC in assay [6] is 4 µM (≈ 7.02 µg/mL); against Escherichia coli, 4 µM (≈ 7.02 µg/mL); with Acinetobacter baumannii, 8 µM (≈ 14 µg/mL); in assay [11], 4 µM (≈ 7.02 µg/mL).

In the case of `CC[C@H](C)[C@H](N)C(=O)N[C@H](C(=O)N[C@@H](CO)C(=O)N[C@H](C(=O)N[C@H](C(=O)NCC(=O)N[C@@H](CCCCN)C(=O)N[C@@H](CC(C)C)C(=O)N[C@H](C(=O)N[C@@H](CCCCN)C(=O)N[C@@H](Cc1c[nH]c2ccccc12)C(=O)N[C@H](C(=O)N[C@H](C(=O)N[C@@H](CC(=O)O)C(=O)N[C@H](C(=O)N[C@H](C(=O)O)C(C)C)[C@@H](C)O)[C@@H](C)CC)[C@@H](C)CC)C(C)C)[C@@H](C)CC)[C@@H](C)O)[C@@H](C)CC` [IISTIGKLVKWIIDTV], the MIC against Staphylococcus aureus stood at 18.8 µM (≈ 33.8 µg/mL); in the assay with Escherichia coli W160-37, 8 µM (≈ 14.4 µg/mL).

As for `CC[C@H](C)[C@H](NC(=O)[C@H](Cc1cnc[nH]1)NC(=O)[C@H](CCCCN)NC(=O)[C@H](CC(C)C)NC(=O)[C@H](CC(C)C)NC(=O)[C@H](CO)NC(=O)[C@H](CC(C)C)NC(=O)[C@H](Cc1c[nH]c2ccccc12)NC(=O)[C@H](CCCCN)NC(=O)CN)C(=O)N[C@@H](CC(C)C)C(=O)N[C@@H](CCCCN)C(N)=O` [GKWLSLLKHILK], the MIC was determined as 31.7 µM (≈ 45.5 µg/mL) in the assay on Pseudomonas aeruginosa; 1.8 µM (≈ 2.58 µg/mL) in the assay on Escherichia coli B; 5.5 µM (≈ 7.89 µg/mL) with Staphylococcus aureus; 0.9 µM (≈ 1.29 µg/mL) against Bacillus subtilis 168; 8.7 µM (≈ 12.5 µg/mL) in [12].

For `CC[C@H](C)[C@H](NC(=O)CNC(=O)[C@@H](NC(=O)[C@H](C)NC(=O)[C@@H](NC(=O)[C@H](CCCCN)NC(=O)[C@@H]1CCCN1C(=O)[C@@H](NC(=O)[C@H](CC(C)C)NC(=O)[C@H](CO)NC(=O)[C@H](CC(C)C)NC(=O)[C@@H](N)Cc1ccccc1)[C@@H](C)CC)[C@@H](C)CC)[C@@H](C)O)C(=O)N[C@@H](C)C(=O)N[C@@H](C)C(=O)N[C@@H](CC(C)C)C(=O)N[C@@H](C)C(=O)N[C@@H](CCCCN)C(=O)N[C@@H](Cc1cnc[nH]1)C(=O)N[C@@H](CC(C)C)C(N)=O` [FLSLIPKIATGIAALAKHL], the MIC in [13] turned out to be 8 µM (≈ 15.8 µg/mL); in assay [14], 2 µM (≈ 3.95 µg/mL); in assay [15] it was 32 µM (≈ 63.2 µg/mL); in assay [16] it was 2 µM (≈ 3.95 µg/mL); in assay [17] it was 2 µM (≈ 3.95 µg/mL).
